The data set in a line: Stability / elimination of the 2′-modifying group with tetrabutylammonium fluoride (TLC analysis). The format is physicochemical. The following applies: room temperature. The protocol: To the compound (4 mg, 0.01 mmol) synthesized in Example 8 were added 1M tetrabutylammonium fluoride/THF (1 mL), and the reaction was carried out at room temperature for 6 days. […] The compound was thus stable.
To the compound (4 mg, 0.01 mmol) synthesized in Example 5 was added 1 M tetrabutylammonium fluoride/THF (1 mL) for a reaction at room temperature for 10 minutes.
To the compound (6 mg, 0.01 mmol) synthesized in Example 16 was added 1 M tetrabutylammonium fluoride/THF (1 mL), followed by a reaction at room temperature for 2 hours.

As for `COC(=O)CCO[C@@H]1[C@H](O)[C@@H](CO)O[C@H]1n1ccc(=O)[nH]c1=O` [Example 5, 2′-O-[2-(Methoxycarbonyl)ethyl]uridine], the “Elimination of 2-methoxycarbonyl group with tetrabutylammonium fluoride” value (1 M tetrabutylammonium fluoride/THF, 10 minutes) was “Complete conversion to uridine”.
Take `CNC(=O)CCO[C@@H]1[C@H](O)[C@@H](COC(c2ccccc2)(c2ccc(OC)cc2)c2ccc(OC)cc2)O[C@H]1n1ccc(=O)[nH]c1=O` [Example 8, 5′-O-(4,4′-Dimethoxytrityl)-2′-O-[2-(N-methylcarbamoyl)ethyl]uridine]: the “Stability of 2-(N-methylcarbamoyl)ethyl group to tetrabutylammonium fluoride” value (1M tetrabutylammonium fluoride/THF, 6 days) was “No degradation was observed”.
As to `COc1ccc(C(OC[C@H]2O[C@@H](n3ccc(=O)[nH]c3=O)[C@H](OCCC(=O)N(C)C)[C@@H]2O)(c2ccccc2)c2ccc(OC)cc2)cc1` [Example 16, 5′-O-(4,4′-Dimethoxytrityl)-2′-O-[2-(N,N-dimethylcarbamoyl)ethyl]uridine], the “Elimination of 2-(N,N-dimethylcarbamoylethyl) group with tetrabutylammonium fluoride” value (1 M tetrabutylammonium fluoride/THF, 2 hours) was “Complete conversion to 5′-O-dimethoxytrityl uridine”.

Values taken from patent US20100016574A1, “2'-Hydroxyl Group-Modified Ribonucleoside Derivatives” (Tokyo Institute of Technology, priority 2006, published 2010).
